Assay results as given in patent US20170355705A1 (GlaxoSmithKline Intellectual Property (No.2) Limited, priority 2014, published 2017).
Counter-ions that a name gives are not always drawn.

Molecular target: T1, SIRT1 (Homo sapiens, UniProt Q96EB6)
T1 sequence (Q96EB6 1-747): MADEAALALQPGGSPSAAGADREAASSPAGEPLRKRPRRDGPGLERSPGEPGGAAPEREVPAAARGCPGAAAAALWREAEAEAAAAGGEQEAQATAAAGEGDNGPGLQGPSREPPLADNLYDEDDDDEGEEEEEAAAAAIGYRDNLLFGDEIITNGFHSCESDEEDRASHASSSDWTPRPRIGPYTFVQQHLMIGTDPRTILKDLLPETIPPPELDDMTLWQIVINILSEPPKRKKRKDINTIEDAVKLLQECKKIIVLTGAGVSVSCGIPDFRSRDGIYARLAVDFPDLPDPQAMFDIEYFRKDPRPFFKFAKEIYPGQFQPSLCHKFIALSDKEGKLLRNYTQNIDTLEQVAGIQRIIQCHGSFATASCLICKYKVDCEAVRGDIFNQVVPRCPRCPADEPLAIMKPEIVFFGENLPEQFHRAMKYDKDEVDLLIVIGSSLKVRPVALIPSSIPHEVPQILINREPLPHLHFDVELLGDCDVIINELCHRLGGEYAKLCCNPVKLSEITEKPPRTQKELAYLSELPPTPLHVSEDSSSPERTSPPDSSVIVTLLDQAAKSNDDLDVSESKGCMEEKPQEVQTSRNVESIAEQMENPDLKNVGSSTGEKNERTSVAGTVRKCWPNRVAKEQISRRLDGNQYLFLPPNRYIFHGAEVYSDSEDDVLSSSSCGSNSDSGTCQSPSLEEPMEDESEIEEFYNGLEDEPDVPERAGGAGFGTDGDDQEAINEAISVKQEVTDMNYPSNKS
Test: Trp mass spectrometry assay of SIRT1 activity (EC1.5, percent maximum activation)
Format: biochemical
Conditions: Trp mass spectrometry assay; for TRP Activity (EC1.5): EC1.5 = concentration giving 150% activation of SIRT1
Method in brief: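 Mass spectrometry read-out (OAADPR formed, or deacetylated Trp peptide) after a 25 min NAD-dependent deacetylation by E. coli-expressed His-SIRT1, stopped with formic acid.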

[1] = percent maximum activation of SIRT1
[2] = 0.5 μM peptide substrate, 120 μM βNAD+, 10 nM SIRT1, 25 minutes at 25° C.

TRP Activity (EC1.5)	TRP MAX RESP (percent maximum fold activation) [1]	TRP Activity (EC1.5, concentration of test compound that results in 150% activation of SIRT1) [2]	TRP MAX RESP (percent maximum fold activation) [2]	Structure (SMILES)
A (EC1.5<1 μM)	A (Fold activation ≧150%)	–	–	Cc1cc2c(nc1-c1cccc(C(F)(F)F)c1)N(C(=O)Nc1ccnc(OC[C@@H](O)CO)c1)[C@H]1CCN2C1 [Example 101, (4S)-N-(2-((S)-2,3-dihydroxypropoxy)pyridin-4-yl)-8-methyl-7-(3-(trifluoromethyl)phenyl)-3,4-dihydro-1,4-methanopyrido[2,3-b][1,4]diazepine-5(2H)-carboxamide]
B (EC1.5 1-25 μM)	A (Fold activation ≧150%)	–	–	O=C(Nc1cnccn1)N1c2nc(-c3ccc(C4CC4)nc3)ccc2N2CC[C@H]1C2 [Example 180, (4S)-7-(6-cyclopropylpyridin-3-yl)-N-(pyrazin-2-yl)-3,4-dihydro-1,4-methanopyrido[2,3-b][1,4]diazepine-5(2H)-carboxamide]
B (EC1.5 1-25 μM)	A (Fold activation ≧150%)	–	–	O=C(Nc1cc(OC[C@H](O)CO)ccn1)N1c2nc(-c3cccc(C(F)(F)F)c3)c(Cl)cc2N2CC[C@H]1C2 [Example 32, (4S)-8-chloro-N-(4-((R)-2,3-dihydroxypropoxy)pyridin-2-yl)-7-(3-(trifluoromethyl)phenyl)-3,4-dihydro-1,4-methanopyrido[2,3-b][1,4]diazepine-5(2H)-carboxamide, Hydrochloride]
A (EC1.5<1 μM)	A (Fold activation ≧150%)	–	–	O=C(Nc1cccc(OC[C@@H](O)CO)n1)N1c2nc(-c3cccc(C(F)(F)F)c3)c(Cl)cc2N2CC[C@H]1C2 [Example 71, (4S)-8-chloro-N-(6-((S)-2,3-dihydroxypropoxy)pyridin-2-yl)-7-(3-(trifluoromethyl)phenyl)-3,4-dihydro-1,4-methanopyrido[2,3-b][1,4]diazepine-5(2H)-carboxamide]
A (EC1.5<1 μM)	A (Fold activation ≧150%)	–	–	O=C(Nc1cncc(OC[C@@H](O)CO)n1)N1c2nc(-c3cccc(C(F)(F)F)c3)c(Cl)cc2N2CC[C@H]1C2 [Example 45, (4S)-8-chloro-N-(6-((S)-2,3-dihydroxypropoxy)pyrazin-2-yl)-7-(3-(trifluoromethyl)phenyl)-3,4-dihydro-1,4-methanopyrido[2,3-b][1,4]diazepine-5(2H)-carboxamide]
A (EC1.5<1 μM)	A (Fold activation ≧150%)	–	–	Cc1cc(-c2nc3c(cc2F)N2CC[C@@H](C2)N3C(=O)Nc2ccccn2)ccn1 [Example 15, (4S)-8-fluoro-7-(2-methylpyridin-4-yl)-N-(pyridin-2-yl)-3,4-dihydro-1,4-methanopyrido[2,3-b][1,4]diazepine-5(2H)-carboxamide]
B (EC1.5 1-25 μM)	A (Fold activation ≧150%)	–	–	CCc1ccc(-c2ccc3c(n2)N(C(=O)Nc2cnccn2)[C@H]2CCN3C2)cn1 [Example 156, (4S)-7-(6-ethylpyridin-3-yl)-N-(pyrazin-2-yl)-3,4-dihydro-1,4-methanopyrido[2,3-b][1,4]diazepine-5(2H)-carboxamide]
–	A (Fold activation ≧150%)	–	–	C[C@H]1CN(c2ccc3c(n2)N(C(=O)Nc2cnccn2)[C@H]2CCN3C2)CCO1 [Example 125, (4S)-7-((S)-2-methylmorpholino)-N-(pyrazin-2-yl)-3,4-dihydro-1,4-methano pyrido[2,3-b][1,4]diazepine-5(2H)-carboxamide]
B (EC1.5 1-25 μM)	A (Fold activation ≧150%)	–	–	O=C(Nc1cnc(OC[C@H](O)CO)cn1)N1c2nc(-c3cccc(C(F)(F)F)c3)c(Cl)cc2N2CC[C@H]1C2 [Example 34, (4S)-8-chloro-N-(5-((R)-2,3-dihydroxypropoxy)pyrazin-2-yl)-7-(3-(trifluoromethyl)phenyl)-3,4-dihydro-1,4-methanopyrido[2,3-b][1,4]diazepine-5(2H)-carboxamide]
A (EC1.5<1 μM)	A (Fold activation ≧150%)	–	–	O=C(Nc1ccnc(O[C@H]2CCOC2)n1)N1c2nc(-c3cccc(C(F)(F)F)c3)c(Cl)cc2N2CC[C@H]1C2 [Example 19, (4S)-8-chloro-N-(2-(((S)-tetrahydrofuran-3-yl)oxy)pyrimidin-4-yl)-7-(3-(trifluoromethyl)phenyl)-3,4-dihydro-1,4-methanopyrido[2,3-b][1,4]diazepine-5(2H)-carboxamide]
B (EC1.5 1-25 μM)	A (Fold activation ≧150%)	–	–	Cn1cc(-c2ccc3c(n2)N(C(=O)Nc2cnccn2)[C@H]2CCN3C2)cn1 [Example 155, (4S)-7-(1-methyl-1H-pyrazol-4-yl)-N-(pyrazin-2-yl)-3,4-dihydro-1,4-methanopyrido[2,3-b][1,4]diazepine-5(2H)-carboxamide]
B (EC1.5 1-25 μM)	A (Fold activation ≧150%)	–	–	O=C(Nc1ncc(OC[C@H](O)CO)cn1)N1c2nc(-c3cccc(C(F)(F)F)c3)c(Cl)cc2N2CC[C@H]1C2 [Example 82, (4S)-8-chloro-N-(5-((R)-2,3-dihydroxypropoxy)pyrimidin-2-yl)-7-(3-(trifluoromethyl)phenyl)-3,4-dihydro-1,4-methanopyrido[2,3-b][1,4]diazepine-5(2H)-carboxamide]
–	–	C (EC1.5>25 μM)	B (Fold Activation <150%)	Cc1cc(-c2ccc3c(n2)N(C(=O)N2CCO[C@@H](C)C2)[C@H]2CCN3C2)ccn1.Cl [Example 234, ((S)-2-methylmorpholino)((4S)-7-(2-methylpyridin-4-yl)-3,4-dihydro-1,4-methanopyrido[2,3-b][1,4]diazepin-5(2H)-yl)methanone hydrochloride]
B (EC1.5 1-25 μM)	A (Fold activation ≧150%)	–	–	Cc1cc(-c2ccc3c(n2)N(C(=O)Nc2cccc4nccnc24)[C@H]2CCN3C2)ccn1 [Example 131, (4S)-7-(2-methylpyridin-4-yl)-N-(quinoxalin-5-yl)-3,4-dihydro-1,4-methanopyrido[2,3-b][1,4]diazepine-5(2H)-carboxamide]
A (EC1.5<1 μM)	A (Fold activation ≧150%)	–	–	O=C(Nc1ccnc(OCCO)n1)N1c2nc(-c3cccc(C(F)(F)F)c3)c(Cl)cc2N2CC[C@H]1C2 [Example 70, (4S)-8-chloro-N-(2-(2-hydroxyethoxy)pyrimidin-4-yl)-7-(3-(trifluoromethyl)phenyl)-3,4-dihydro-1,4-methanopyrido[2,3-b][1,4]diazepine-5(2H)-carboxamide]
B (EC1.5 1-25 μM)	A (Fold activation ≧150%)	–	–	Cc1cc(-c2ccc3c(n2)N(C(=O)Nc2nccc4[nH]cnc24)[C@H]2CCN3C2)ccn1 [Example 145, (4S)-N-(1H-imidazo[4,5-c]pyridin-4-yl)-7-(2-methylpyridin-4-yl)-3,4-dihydro-1,4-methanopyrido[2,3-b][1,4]diazepine-5(2H)-carboxamide]
B (EC1.5 1-25 μM)	A (Fold activation ≧150%)	–	–	Cc1cncc(NC(=O)N2c3nc(-c4ccnc(C)c4)ccc3N3CC[C@H]2C3)c1 [Example 194, (4S)-N-(5-methylpyridin-3-yl)-7-(2-methylpyridin-4-yl)-3,4-dihydro-1,4-methanopyrido[2,3-b][1,4]diazepine-5(2H)-carboxamide]
A (EC1.5<1 μM)	A (Fold activation ≧150%)	–	–	O=C(Nc1ccc(OC[C@@H](O)CO)nc1)N1c2nc(-c3cccc(C(F)(F)F)c3)c(Cl)cc2N2CC[C@H]1C2 [Example 72, (4S)-8-chloro-N-(6-((S)-2,3-dihydroxypropoxy)pyridin-3-yl)-7-(3-(trifluoromethyl)phenyl)-3,4-dihydro-1,4-methanopyrido[2,3-b][1,4]diazepine-5(2H)-carboxamide]

Structure (SMILES)	TRP Activity (EC1.5)	TRP MAX RESP (percent maximum fold activation) [1]	TRP Activity (EC1.5, concentration of test compound that results in 150% activation of SIRT1) [2]	TRP MAX RESP (percent maximum fold activation) [2]
Cc1ccc(-c2nc3c(cc2Cl)N2CC[C@@H](C2)N3C(=O)Nc2ccccn2)cn1 [Example 16, (4S)-8-chloro-7-(6-methylpyridin-3-yl)-N-(pyridin-2-yl)-3,4-dihydro-1,4-methanopyrido[2,3-b][1,4]diazepine-5(2H)-carboxamide]	B (EC1.5 1-25 μM)	A (Fold activation ≧150%)	–	–
